The source of these data is patent US10292986B2, “Methods for treating epithelian mesenchymal transition related diseases” (THE BOARD OF REGENTS OF THE UNIVERSITY OF TEXAS SYSTEM, priority 2015, dated 2019).

Series [1] relates to hSAECs. As to the kind of experiment: TGFβ-induced EMT gene expression in hSAECs by Q-RT-PCR. Type of series: cell-based, human. As for the experimental part: (§1) hSAECs culture and induction of the EMT transformation. An immortalized human small airway epithelial cell (hSAEC) line established by infecting primary hSAECs with human telomerase (hTERT) and cyclin-dependent kinase (CDK)-4 retrovirus constructs was obtained from John Minna, UTSW (Ramirez et al., 2004, Cancer. Res. 64:9027-34). The immortalized hSAECs were grown in SAGM small airway epithelial cell growth medium (Lonza, Walkersville, MD) in a humidified 5% CO2 atmosphere. For induction of the EMT, hSAECs were TGFIβ-stimulated for 15 d (10 ng/ml, PeproTech, Rocky Hill, NJ). The small-molecule IKK inhibitor BMS345541 was purchased from Sigma Aldrich and used at 10 μM (Burke et al., 2003, J. Biol. Chem. 278:1450-56).
(§2) Quantitative real-time reverse transcription-PCR (Q-RT-PCR). Total RNA was extracted using acid guanidinium phenol extraction (Tri Reagent; Sigma). For gene expression analyses, 1 μg of RNA was reverse-transcribed using SuperScript III in a 20-μl reaction mixture. The rest of the procedures were as described previously (Brasier et al., 2011, J. Virol. 85:11752-69). The forward and reverse gene-specific Q-RT-PCR primers are listed in Table 1; relative changes in gene expression were quantified using the ΔΔCT method.

Series [2] concerns 5′ NFκB site of SNAI1, ZEB1, IL-6, and VIM promoters. As to the kind of experiment: XChIP / Q-gPCR recruitment of transcriptional elongation complex to EMT gene promoters in hSAECs. The format is cell-based, human. The protocol:
Dual cross-link chromatin immunoprecipitation (XChIP). […] Protein-protein cross-linking was first performed with disuccinimidyl glutarate (2mM, Pierce), followed by protein-DNA cross-linking with formaldehyde. […] Immunoprecipitates were collected with 40 μL protein A magnetic beads (Dynal Inc.), washed, and eluted in 250 μL elution buffer for 15 min at room temperature. Samples were de-cross-linked in 0.2 M NaCl at 65 ° C. for 2 h. The precipitated DNA was phenol/chloroform-extracted, precipitated with 100% ethanol, and dried.
Quantitative real time genomic PCR (Q-gPCR). Gene enrichment in XChIP was determined by Q-gPCR using region-specific PCR primers (Table 2). Standard curves were generated using a dilution series of genomic DNA (from 1 ng to 100 ng) for each primer pair. The fold change of DNA in each immunoprecipitate was determined by normalizing the absolute amount to the input DNA reference and calculating the fold change relative to that amount in unstimulated cells.

For series [3] the following is noted: cited from earlier work.
Series [4] concerns hSAECs. The series can be described thus: TGFβ-induced type II EMT in hSAECs, confocal immunofluorescence microscopy. Type of series: cell-based, human. The protocol: as §1
Immunostaining and Confocal Immunofluorescence Microscopy. hSAECs were incubated±TGFβ (10 ng/mL) for 15 days, re-plated on glass cover slips pretreated with rat tail collagen (Roche Applied Sciences), and fixed with 4% paraformaldehyde in PBS. Afterwards, the fixed cells were stained with Alexa Fluor® 568 phalloidin (Life Technologies) for cytoplasmic distribution of F-actin and also counterstained with 4′, 6-diamidino-2-phenylindole (DAPI) for nuclear staining. The cells were visualized with a Nikon fluorescence confocal microscope at a magnification of 63×.
For immunofluorescence staining, hSAECs were plated on rat tail collagen-treated cover glasses and stimulated for the indicated times. The cells were fixed with 4% paraformaldehyde in PBS and incubated with 0.1 m ammonium chloride for 10 min. Cells were permeabilized with 0.5% Triton-100, followed by incubation in blocking buffer (5% goat serum, 0.1% IGEPAL CA-630, 0.05% NaN3, and 1% BSA) and incubated with anti-SNAIL1, anti-E-Cadherin, and anti-vimentin antibodies (Abs; Abcam, Santa Cruz, Calif.) incubation buffer (0.1% IGEPAL CA-630, 0.05% NaN3, and 2% BSA) overnight at 4 ° C. After washing, cells were stained with Alexa Fluor 488-conjugated goat anti-rabbit IgG (Life Technologies) in incubation buffer for 1 h, then visualized with a Nikon fluorescence confocal microscope, magnification 63×.

Series [5] deals with C57BL6/J mice. The series can be described thus: TGFβ-induced pulmonary fibrosis in mice, histology and Ashcroft scoring. Type of series: in vivo. The protocol:
(§3) TGFβ-induced pulmonary fibrosis in mice. Male C57BL6/J mice aged 15 weeks were purchased from The Jackson Laboratory (Bar Harbor, Me.) and housed under pathogen-free conditions with food and water ad libitum. Mice were given multiple challenges with 1 μg/mouse of TGFβ every other day for a total of 15 TGFβ treatments. Meanwhile, mice were pre-treated with or without JQ1 (50 mg/kg body weight, i.p.) before TGFβ administration. Ten days after the last TGFβ treatment, bronchoalveolar lavages were obtained for quantifying innate immune cells and measuring cytokine and chemokine secretion; the mice were sacrificed and lung tissues taken for RNA extraction and fixed for histological examination. Whole lungs were inflated under 25 cm H2O pressure with 10% (v/v) neutral buffered formalin through the tracheal cannula and immersed in formalin for at least 24 hours. After being processed into paraffin blocks, the lungs were cut into 5-μm sections and stained either with Masson Trichrome or H&E to assess fibrotic changes in the lungs.
Assessment of levels of pulmonary fibrosis. Pulmonary fibrosis was graded using the Ashcroft scoring method as described (Hubner et al., 2008, Biotechniques. 44:507). In brief, to determine the fibrosis histopathology score for the lung of each mouse, the entire left and right longitudinal lung sections were scored separately (score range, 0 to 9) at ×100 magnification, and the scores were combined (total score range, 0 to 18). […] were intermediate grades assigned on the basis of the predominant histology changes if features described for two distinct grades (as described) were present in the section, to account for the progressive nature of the fibrotic lesion.

Series [6] concerns C57BL6/J mice. As to the kind of experiment: TGFβ-induced pulmonary fibrosis in mice, lung Q-RT-PCR of fibrotic program. Conditions: JQ1 i.p., repetitive TGFβ stimulation. The format is in vivo. The protocol: as §2
as §3, with “After being processed into paraffin blocks, the lungs were cut into 5-μm sections and stained either with Masson Trichrome or H&E to assess fibrotic changes in the lungs.” left out

Series [7] concerns the target T1, Brd4 (Homo sapiens, UniProt O60885). Conditions: cited from earlier work.
In the next series the test system is GFP-Brd4. To be noted: cited from earlier work.
Series [8] addresses T1, Brd4. Conditions: chronic treatment; cited from earlier work.
[9] abbreviates: ± BMS-345541 10 μM, TGFβ 0 or 15 d.
Setting [10] is: JQ1 10 μM, TGFβ 10 ng/mL 15 d, hSAECs.
Where [11] appears, read: JQ1 10 μM, TGFβ 10 ng/mL, 15 d time course.
The mark [12] stands for this setting: JQ1 i.p. (100 mg/kg in FIG. 11 legend, 50 mg/kg in methods), repetitive intranasal TGFβ 1 μg/mouse.

As for `Cc1ccc2nc(NCCN)c3ncc(C)n3c2c1` [BMS-345541], the “TGFβ-induced enhanced mesenchymal gene expression” value with hSAECs [1] (IKK kinase inhibitor BMS-345541, hSAECs) was “inhibited”. In addition, in series [2] (setting [9]), the “BRD4 recruitment to EMT gene promoters (SNAI1, ZEB1, IL-6, VIM)” value is on record as “inhibited”; the “CDK9 recruitment to EMT gene promoters (SNAI1, ZEB1, IL-6, VIM)” value is on record as “inhibited”; the “RelA recruitment to EMT gene promoters (SNAI1, ZEB1, IL-6, VIM)” value is given as “inhibited”; the “phospho-Ser 2 CTD RNA Pol II recruitment to EMT gene promoters (SNAI1, ZEB1, IL-6, VIM)” value is recorded as “inhibited”.
`CCC(=O)O[C@]1(C(=O)SCF)[C@H](C)C[C@H]2[C@@H]3C[C@H](F)C4=CC(=O)C=C[C@]4(C)[C@@]3(F)[C@@H](O)C[C@@]21C` [Fluticasone propionate]: the “solubility in 95% ethanol” value in [3] (95% ethanol) is recorded as “slightly soluble”. Further, the “solubility in dimethyl sulfoxide” value in series [3] (dimethyl sulfoxide) is “freely soluble”. Further, in series [3] (dimethylformamide), the solubility in dimethylformamide result is reported as “freely soluble”. In addition, the solubility in methanol entry in [3] (methanol) is “slightly soluble”. Moreover, the solubility in water result in series [3] (water) is recorded as “practically insoluble”.
As to `Cc1sc2c(c1C)C(c1ccc(Cl)cc1)=NC(CC(=O)OC(C)(C)C)c1nnc(C)n1-2` (centres unmarked) [JQ1], in the series with hSAECs [4] (JQ1 10 μM ± TGFβ 10 ng/mL 15 days, FIG. 9A), the “the EMT (Type II EMT)” value is on record as “blocks”. In addition, in the series with hSAECs [4] (setting [10]), the “TGFβ-induced acquisition of elongated shape” value was “blocked”; the “TGFβ-induced stress fiber formation” value is recorded as “blocked”; the “TGFβ-induced upregulation and cytosolic redistribution of SNAI1” value was “blocked”; the “TGFβ-induced upregulation and cytosolic redistribution of VIM” value is “blocked”. Further, the “expression and cellular distribution of CDH1” value in the series with hSAECs [4] (setting [10]) is listed as “maintained”. In addition, the “TGFβ-induced enhanced mesenchymal gene expression” value in the series on hSAECs [1] (BRD4 inhibitor JQ1, hSAECs) is given as “significantly inhibited”. The “TGFβ-induced EMT gene expression in hSAECs” value with hSAECs [1] (JQ1 10 μM ± TGFβ 10 ng/mL 15 d, FIG. 9B) is given as “blocks”. Further, in the series on hSAECs [1] (JQ1 10 μM, TGFβ 10 ng/mL, 15 d, not to levels seen in normal hSAECs), the “CDH1 expression (mRNA)” value is listed as “partially maintained”. Moreover, in the series with hSAECs [1] (setting [11]), the “TGFβ-induced expression of FN1 mRNA” value is given as “significantly blocked”, the “TGFβ-induced expression of IL-6 mRNA” value is listed as “significantly blocked”, the “TGFβ-induced expression of SNAI1 mRNA” value is on record as “significantly blocked” and the “TGFβ-induced expression of VIM mRNA” value is given as “significantly blocked”. For the same compound, the “TGFβ-induced expression of ZEB1 mRNA” value with hSAECs [1] (setting [11]) is “significantly blocked”. Moreover, in series [2] (± JQ1, TGFβ 0 or 15 days), the “CDK9 recruitment to SNAI1” value was “significantly disrupted”, the “RelA recruitment to SNAI1” value is reported as “significantly disrupted”, the “TGFβ-induced recruitment of BRD4 to the 5′NFκB site of SNAI1” value is listed as “significantly attenuated” and the “phospho-Ser 2 CTD RNA Pol II recruitment to SNAI1” value was “significantly disrupted”. In the series with C57BL6/J mice [5] (setting [12]), the TGFβ-induced airway fibrosis entry is reported as “effectively blocked” and the “lung histology (Masson Trichrome)” value is “histologically normal”. The “combined Ashcroft score” value with C57BL6/J mice [5] (JQ1 mice with chronic TGFβ treatment vs chronic TGFβ alone (score 8), total score range 0 to 18) is reported as “significantly lower”. In the series on C57BL6/J mice [6], the “TGFβ-induced pulmonary fibrotic program (mSNAI1, mFN-1, mαSMA, mCol1A1, mIL-6 mRNA in lung)” value is recorded as “significantly inhibited”. Moreover, the “recruitment and binding of Brd4 to TNFα and E-selectin promoter elements” value on Brd4 [7] is reported as “inhibits”. The “recovery time in FRAP assays using GFP-Brd4” value in the series with GFP-Brd4 is given as “accelerates”. Besides, the “atherogenic responses and atherosclerosis” value on Brd4 [8] is reported as “attenuates”.
